Assay results from US10112926B2 (priority 2014, dated 2018).
Counter-ions that a name gives are not always drawn.

What was measured:
[1] = molecular target: Vps34 (Homo sapiens (Human), UniProt Q8NEB9); details: read-out: Assay C VPS34 IC50
[2] = molecular target: mTOR (Homo sapiens (Human), UniProt P42345); details: read-out: Assay G mTOR IC50
[3] = molecular target: PI 4-kinase beta (Homo sapiens (Human), UniProt Q9UBF8); details: read-out: Assay D PI4Kβ IC50
Sequence of PI 4-kinase beta (Q9UBF8 whole entry): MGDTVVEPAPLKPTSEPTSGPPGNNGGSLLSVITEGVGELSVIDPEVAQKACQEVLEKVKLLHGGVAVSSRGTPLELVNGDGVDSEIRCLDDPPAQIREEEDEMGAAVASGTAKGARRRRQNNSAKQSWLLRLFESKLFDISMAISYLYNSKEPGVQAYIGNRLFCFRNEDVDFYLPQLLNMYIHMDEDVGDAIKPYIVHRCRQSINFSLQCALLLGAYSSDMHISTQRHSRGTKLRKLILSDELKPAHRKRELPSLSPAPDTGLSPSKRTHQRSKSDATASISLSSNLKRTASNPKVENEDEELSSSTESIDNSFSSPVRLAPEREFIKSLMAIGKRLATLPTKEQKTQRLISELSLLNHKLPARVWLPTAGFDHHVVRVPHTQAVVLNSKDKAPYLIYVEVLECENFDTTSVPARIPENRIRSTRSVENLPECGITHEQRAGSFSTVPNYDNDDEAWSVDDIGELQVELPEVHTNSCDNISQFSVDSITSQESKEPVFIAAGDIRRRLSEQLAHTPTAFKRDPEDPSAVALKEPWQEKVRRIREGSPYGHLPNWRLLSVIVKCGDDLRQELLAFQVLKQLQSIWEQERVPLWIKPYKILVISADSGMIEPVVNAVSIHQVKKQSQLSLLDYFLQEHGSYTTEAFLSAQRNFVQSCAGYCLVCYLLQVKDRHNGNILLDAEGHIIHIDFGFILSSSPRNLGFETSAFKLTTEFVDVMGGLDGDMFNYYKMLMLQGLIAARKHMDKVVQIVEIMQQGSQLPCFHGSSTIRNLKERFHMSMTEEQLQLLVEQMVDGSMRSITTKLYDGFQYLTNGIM

Sequence of Vps34 (Q8NEB9 whole entry): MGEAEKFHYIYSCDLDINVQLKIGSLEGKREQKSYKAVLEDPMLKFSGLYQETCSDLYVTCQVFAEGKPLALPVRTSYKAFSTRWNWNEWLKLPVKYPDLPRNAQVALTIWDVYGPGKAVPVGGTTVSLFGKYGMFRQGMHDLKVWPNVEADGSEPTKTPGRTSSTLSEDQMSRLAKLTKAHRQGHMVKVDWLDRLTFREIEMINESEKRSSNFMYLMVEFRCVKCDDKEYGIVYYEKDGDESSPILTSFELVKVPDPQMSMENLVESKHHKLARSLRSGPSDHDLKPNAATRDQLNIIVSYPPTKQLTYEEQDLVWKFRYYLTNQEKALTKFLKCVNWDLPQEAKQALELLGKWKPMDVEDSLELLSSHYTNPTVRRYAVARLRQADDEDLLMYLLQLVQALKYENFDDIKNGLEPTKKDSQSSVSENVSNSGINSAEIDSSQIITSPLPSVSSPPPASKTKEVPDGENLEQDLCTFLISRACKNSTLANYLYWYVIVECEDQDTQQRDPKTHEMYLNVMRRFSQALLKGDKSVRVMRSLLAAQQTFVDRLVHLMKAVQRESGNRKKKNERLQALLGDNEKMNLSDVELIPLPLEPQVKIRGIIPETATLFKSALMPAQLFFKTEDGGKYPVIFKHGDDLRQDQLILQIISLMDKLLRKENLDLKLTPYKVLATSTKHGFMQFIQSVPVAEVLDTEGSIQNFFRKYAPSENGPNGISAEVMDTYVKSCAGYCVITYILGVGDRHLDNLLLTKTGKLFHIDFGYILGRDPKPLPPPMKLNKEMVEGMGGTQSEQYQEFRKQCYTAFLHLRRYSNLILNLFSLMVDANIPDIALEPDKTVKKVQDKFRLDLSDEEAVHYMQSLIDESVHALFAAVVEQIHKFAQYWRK

Cc1cc(-c2cc(-c3cc(S(=O)(=O)NCC4(C)COC4)ccc3C)cnc2N)on1 [Example 17, 3-[6-Amino-5-(3-methyl-isoxazol-5-yl)-pyridin-3-yl]-4-methyl-N-(3-methyl-oxetan-3-ylmethyl)-benzenesulfonamide hydrochloride]
IC50 [1]: 8.1 µM | IC50 [2]: 8.5 µM

Cc1ncc(-c2cc(-c3cc(S(=O)(=O)NCC(C)(C)O)ccc3C)cnc2N)s1 [Example 15, 3-[6-Amino-5-(2-methyl-thiazol-5-yl)-pyridin-3-yl]-N-(2-hydroxy-2-methyl-propyl)-4-methyl-benzenesulfonamide]
IC50 [1]: 1.62 µM | IC50 [2]: 7.9 µM

Cc1ccc(S(=O)(=O)NCC(C)(C)O)cc1-c1cnc(N)c(-c2nc(C(F)F)no2)c1 [Example 71, 3-(6-Amino-5-(3-(difluoromethyl)-1,2,4-oxadiazol-5-yl)pyridin-3-yl)-N-(2-hydroxy-2-methylpropyl)-4-methylbenzenesulfonamide hydrochloride]
IC50 [3]: 10 µM | IC50 [2]: > 10 µM

Cc1noc(-c2cc(-c3cc(S(=O)(=O)NCC4CCCO4)ccc3C)cnc2N)n1 (stereo not drawn) [Example 57, 3-(6-Amino-5-(3-methyl-1,2,4-oxadiazol-5-yl)pyridin-3-yl)-4-methyl-N-((tetrahydrofuran-2-yl)methyl)benzenesulfonamide]
IC50 [3]: > 10 µM | IC50 [2]: 2.4 µM

Cc1ccc(S(=O)(=O)NCC(C)(C)O)cc1-c1cnc(N)c(-c2cnoc2C)c1 [Example 62, 3-(6-Amino-5-(5-methylisoxazol-4-yl)pyridin-3-yl)-N-(2-hydroxy-2-methylpropyl)-4-methylbenzenesulfonamide]
IC50 [3]: 6.6 µM | IC50 [2]: > 10 µM

Cc1cc(-c2cc(-c3cc(S(=O)(=O)NCC4(CO)CCCCC4)ccc3C)cnc2N)on1 [Example 37.3, 3-(6-Amino-5-(3-methylisoxazol-5-yl)pyridin-3-yl)-N-((1-(hydroxymethyl)cyclohexyl)methyl)-4-methylbenzenesulfonamide]
IC50 [1]: > 10 µM | IC50 [2]: 3 µM

Cc1cc(-c2cc(-c3cc(S(=O)(=O)NCCO)ccc3C)cnc2N)on1 [Example 73, 3-(6-Amino-5-(3-methylisoxazol-5-yl)pyridin-3-yl)-N-(2-hydroxyethyl)-4-methylbenzenesulfonamide]
IC50 [1]: > 10 µM | IC50 [2]: > 10 µM

Cc1ccc(S(=O)(=O)NCC(C)(C)O)cc1-c1cnc(N)c(-n2cncn2)c1 [Example 81, 3-(6-Amino-5-(1H-1,2,4-triazol-1-yl)pyridin-3-yl)-N-(2-hydroxy-2-methylpropyl)-4-methylbenzenesulfonamide hydrochloride]
IC50 [1]: > 9.8 µM | IC50 [3]: > 9.78 µM

Cc1cc(-c2cc(-c3cc(S(=O)(=O)N[C@@H]4CCNC(=O)C4)ccc3C)cnc2N)on1 [Example 37.4, (R)-3-(6-Amino-5-(3-methylisoxazol-5-yl)pyridin-3-yl)-4-methyl-N-(2-oxopiperidin-4-yl)benzenesulfonamide]
IC50 [1]: > 10 µM | IC50 [3]: 2.4 µM

Cc1ncc(-c2cc(-c3cc(S(=O)(=O)N[C@H]4CC[C@H](O)CC4)ccc3C)cnc2N)o1 [Example 98, 3-(6-amino-5-(2-methyloxazol-5-yl)pyridin-3-yl)-N-((1r,4r)-4-hydroxycyclohexyl)-4-methylbenzenesulfonamide hydrochloride]
IC50 [3]: 0.83 µM | IC50 [2]: 7.9 µM

Cc1noc(-c2cc(-c3cc(S(=O)(=O)NCC4(O)CC4)ccc3C)cnc2N)n1 [Example 37.19, 3-(6-Amino-5-(3-methyl-1,2,4-oxadiazol-5-yl)pyridin-3-yl)-N-((1-hydroxycyclopropyl)methyl)-4-methylbenzenesulfonamide]
IC50 [1]: > 10 µM | IC50 [3]: 8.6 µM

Cc1cc(-c2cc(-c3cc(S(=O)(=O)NC4CC4)ccc3C)cnc2N)on1 [Example 31, 3-(6-Amino-5-(3-methylisoxazol-5-yl)pyridin-3-yl)-N-cyclopropyl-4-methylbenzenesulfonamide]
IC50 [1]: > 10 µM | IC50 [3]: 1.26 µM

Cc1ncc(-c2cc(-c3cc(S(N)(=O)=O)ccc3C)cnc2N)s1 [Example 74, 3-(6-Amino-5-(2-methylthiazol-5-yl)pyridin-3-yl)-4-methylbenzenesulfonamide]
IC50 [1]: 2.2 µM | IC50 [3]: 5 µM

Cc1ncc(-c2cc(-c3cc(S(=O)(=O)N[C@H]4CC[C@H](CO)CC4)ccc3C)cnc2N)o1 [Example 104.11, 3-(6-amino-5-(2-methyloxazol-5-yl)pyridin-3-yl)-N-((1r,4r)-4-(hydroxymethyl)cyclo-hexyl)-4-methylbenzenesulfon-amide]
IC50 [1]: 0.3 µM | IC50 [3]: 0.5 µM

Cc1nc(-c2cc(-c3cc(S(=O)(=O)N[C@H]4CC[C@H](O)CC4)ccc3C)cnc2N)cs1 [Example 92, 3-(6-Amino-5-(2-methylthiazol-4-yl)pyridin-3-yl)-N-((1r,4r)-4-hydroxycyclohexyl)-4-methylbenzenesulfonamide]
IC50 [1]: > 10 µM | IC50 [3]: 5.1 µM

Cc1cc(-c2cc(-c3cc(S(=O)(=O)N4CC(CO)C4)ccc3C)cnc2N)on1 [Example 37.12, (1-((3-(6-Amino-5-(3-methylisoxazol-5-yl)pyridin-3-yl)-4-methylphenyl)sulfonyl)azetidin-3-yl)methanol]
IC50 [1]: > 10 µM | IC50 [3]: 3.4 µM

Cc1cc(-c2cc(-c3cc(S(=O)(=O)NCCC(C)(C)O)ccc3C)cnc2N)ccn1 [Example 16, 3-(2-Amino-2′-methyl-[3,4′]bipyridinyl-5-yl)-N-(3-hydroxy-3-methyl-butyl)-4-methyl-benzenesulfonamide]
IC50 [1]: > 9.1 µM | IC50 [2]: > 9.1 µM

Cc1noc(-c2cc(-c3cc(S(=O)(=O)NCC4(CO)COC4)ccc3C)cnc2N)n1 [Example 52, 3-(6-Amino-5-(3-methyl-1,2,4-oxadiazol-5-yl)pyridin-3-yl)-N-((3-(hydroxymethyl)oxetan-3-yl)methyl)-4-methylbenzenesulfonamide]
IC50 [1]: > 10 µM | IC50 [3]: > 10 µM

Cc1cc(-c2cc(-c3cc(S(=O)(=O)NC[C@@H]4CCOC4)ccc3C)cnc2N)on1 [Example 38, (S)-3-(6-Amino-5-(3-methylisoxazol-5-yl)pyridin-3-yl)-4-methyl-N-((tetrahydrofuran-3-yl)methyl)benzenesulfonamide]
IC50 [1]: > 10 µM | IC50 [3]: 3.1 µM

Cc1cc(-c2cc(-c3cc(S(=O)(=O)NCCC4CCOCC4)ccc3C)cnc2N)on1 [Example 19.12, 3-(6-amino-5-(3-methylisoxazol-5-yl)pyridin-3-yl)-4-methyl-N-(2-(tetrahydro-2H-pyran-4-yl)ethyl)benzenesulfon-amide trifluoroacetic acid salt]
IC50 [1]: > 10 µM | IC50 [3]: 4.3 µM

Cc1cc(-c2cc(-c3cc(S(=O)(=O)NCC4COC4)ccc3C)cnc2N)on1 [Example 25, 3-(6-Amino-5-(3-methylisoxazol-5-yl)pyridin-3-yl)-4-methyl-N-(oxetan-3-ylmethyl)benzenesulfonamide]
IC50 [1]: > 10 µM | IC50 [3]: 1.3 µM

Cc1noc(-c2cc(-c3cc(S(=O)(=O)N[C@H]4C[C@@H](O)C4)ccc3C)cnc2N)n1 [Example 5.5a, 3-(6-Amino-5-(3-methyl-1,2,4-oxadiazol-5-yl)pyridin-3-yl)-N-((1s,3s)-3-hydroxycyclobutyl)-4-methylbenzenesulfonamide]
IC50 [1]: > 10 µM | IC50 [2]: > 10 µM

Cc1ccc(S(=O)(=O)NCC(C)(C)O)cc1-c1cnc(N)c(-c2cc(C3CC3)no2)c1 [Example 35.3, 3-(6-Amino-5-(3-cyclopropylisoxazol-5-yl)pyridin-3-yl)-N-(2-hydroxy-2-methylpropyl)-4-methylbenzenesulfonamide hydrochloride]
IC50 [1]: > 10 µM | IC50 [3]: 1.3 µM

CCc1noc(-c2cc(-c3cc(S(=O)(=O)NCC(C)(C)O)ccc3C)cnc2N)n1 [Example 5.3, 3-(6-Amino-5-(3-ethyl-1,2,4-oxadiazol-5-yl)pyridin-3-yl)-N-(2-hydroxy-2-methylpropyl)-4-methylbenzenesulfon-amide hydrochloride]
IC50 [1]: > 10 µM | IC50 [2]: > 10 µM

Cc1noc(-c2cc(-c3cc(S(=O)(=O)NC4CC(O)C4)ccc3C)cnc2N)n1 (mixture of isomers) [Example 5.5, Diastereomers of 3-(6-Amino-5-(3-methyl-1,2,4-oxadiazol-5-yl)pyridin-3-yl)-N-(3-hydroxycyclobutyl)-4-methylbenzene sulfonamide hydrochloride]
IC50 [1]: > 10 µM | IC50 [2]: > 10 µM

Cc1ncc(-c2cc(-c3cc(S(=O)(=O)NOCC(C)(C)O)ccc3C)cnc2N)o1 [Example 107, 3-(6-amino-5-(2-methyloxazol-5-yl)pyridin-3-yl)-N-(2-hydroxy-2-methylpropoxy)-4-methylbenzenesulfonamide hydrochloride]
IC50 [1]: > 10 µM | IC50 [3]: 0.66 µM

Cc1noc(-c2cc(-c3cc(S(=O)(=O)NCC4(O)CCOCC4)ccc3C)cnc2N)n1 [Example 51, 3-(6-Amino-5-(3-methyl-1,2,4-oxadiazol-5-yl)pyridin-3-yl)-N-((4-hydroxytetrahydro-2H-pyran-4-yl)methyl)-4-methylbenzenesulfonamide]
IC50 [1]: > 10 µM | IC50 [3]: > 10 µM

Cc1noc(-c2cc(-c3cc(S(=O)(=O)NC4CC(F)(F)C4)ccc3C)cnc2N)n1 [Example 37.17, 3-(6-Amino-5-(3-methyl-1,2,4-oxadiazol-5-yl)pyridin-3-yl)-N-(3,3-difluorocyclobutyl)-4-methylbenzenesulfonamide]
IC50 [1]: > 10 µM | IC50 [3]: 8.6 µM

Cc1ccc(S(=O)(=O)N[C@H]2CC[C@H](O)CC2)cc1-c1cnc(N)c(-c2cc(C(C)(C)C)no2)c1 [Example 35.2, trans-3-(6-Amino-5-(3-(tert-butyl)isoxazol-5-yl)pyridin-3-yl)-N-(−4-hydroxycyclohexyl)-4-methylbenzenesulfonamide hydrochloride]
IC50 [1]: > 10 µM | IC50 [3]: 0.63 µM

Cc1cc(-c2cc(-c3cc(S(=O)(=O)NCC4(CO)CCC4)ccc3C)cnc2N)on1 [Example 37.6, 3-(6-Amino-5-(3-methylisoxazol-5-yl)pyridin-3-yl)-N-((1-(hydroxymethyl)cyclobutyl)methyl)-4-methylbenzenesulfonamide]
IC50 [1]: > 10 µM | IC50 [3]: 2.2 µM
